According to US20250228765A1, “TREATING KNEE JOINT PAIN BY INJECTING RESIN[…] ULTRA LOW DOSES” (Gruenenthal GmbH, priority 2024, published 2025):

What was measured:
[1] = Comparative study in rats: synovial fluid pharmacokinetics after intraarticular dosing; assay type: in vivo; settings: male, rat, 9.6 ng, across the three formulations
Description: (§1) Animals: 63 male rats (21 rats per formulation; plus an additional 3 animals as a replacement). Body weight: average 263 g (236-295 g). Dose (IA): ˜36.6 ng/kg=>9.6 ng/knee as an injection of 30 μL/knee of three various formulations with concentration 320 ng/mL. PK sampling: 7 timepoints: 10 min (animals not fully conscious between dosing and sampling), 20 min, 30 min, 1 h, 1.5 h, 2 h and 4 h (one sample per rat; 3 rats per timepoint) in plasma and synovial fluid. Tissue samples: at same time points as PK samples following tissue samples: meniscus, patella, femoral head and tibial plateau.
Sampling of synovial fluid: A 0.5 ml 28G Insulin syringes (fixed needle, no hub) were filled with 100 μl of the saline/EDTA solution. The skin was removed from the joint and then the needle was inserted through the patellar tendon into the joint space. The solution was then injected into the joint space, the knee was flexed a couple/few times (all with the needle still in the joint) and then was pulled back on the plunger to collected the mix of saline/EDTA and synovial fluid. The lavage fluid was then put into a microcentrifuge tube, it was spun to pellet any cells/debris and then the supernatant was collected.

[2] = Human study: safety and injection site pain after intraarticular injection; assay type: in vivo; settings: for subjects with severe adverse events: none related to investigational medicinal product; for incidence of treatment emergent adverse events: placebo 75.0%
Description: (§2) The primary objective of this study was to compare the analgesic effects of single intraarticular injections of Resiniferatoxin (100 or 400 ng) compared to placebo, at 3 and 6 months postinjection, in participants with chronic osteoarthritic knee joint pain. Secondary objectives were to evaluate the analgesic effects of Resiniferatoxin versus placebo in terms of a responder analysis (percentage of subjects achieving ≥50% or ≥70% reduction in visual analog scale pain score) and changes in Western Ontario and McMaster Universities Arthritis Index (WOMAC) total and subscale scores (pain, physical function and stiffness). Safety and injection site pain were also evaluated.
(§3) The study was conducted as a randomized, double-blind, placebo-controlled, single-dose trial of Resiniferatoxin. Eligible patients were aged 40 to 80 years with radiographic knee osteoarthritis (Kellgren-Lawrence Grade 2-4 in the last 3 years) and a baseline visual analog scale (0-100 mm) pain score ≥40 mm on motion in the target knee, with or without pain medication. 67 subjects were randomized to treatment with either Resiniferatoxin 100 ng (n=24) or 400 ng (n=23), or placebo (n=20), administered intraarticularly into the index knee. Intraarticular Ropivacaine (5 ml, 0.5%) was administered 15 mins before investigational medicinal product. Visual analog scale scores were used to evaluate pain on motion as the average of the last 2 days in a target knee between baseline and at 3 and 6 months post injection. Injection site pain was rated (visual analog scale) from baseline (−0.5 h) up to 3 h post intraarticular injections.

[3] = tested on: moderate to severe pain due to osteoarthritis of the knee; settings: cited from earlier work
[4] = tested on: naturally-occurring canine osteoarthritis; settings: single intraarticular injection of 10 μg; 7 dogs with osteoarthritis; cited from earlier work
[5] = tested on: chronic osteoarthritic knee joint pain; test: Randomized, double-blind, placebo-controlled single-dose human study: analgesic effect of intraarticular injection; assay type: in vivo; settings: for mean (SD) absolute reduction of visual analog scale score, pain on motion: 6 months, VAS 0-100 mm, placebo 28.26
Description: In a human study, two pharmaceutical dosage forms according to the invention were used comprising Resiniferatoxin (100 or 400 ng) in an aqueous ethanolic solution additionally containing polysorbate 80 (Tween® 80) as surfactant, trometamol as buffer and a combination of NaCl, KCl, and CaCl2) as inorganic salts.
as §2, §3

[6] = Comparative study in rats: knee tissue concentrations after intraarticular dosing; assay type: in vivo; settings: male, rat, knee tissues, across the three formulations
Description: as §1

[7] = single intraarticular doses 100 ng or 400 ng

In the case of C=C(C)[C@]12C[C@@H](C)[C@@]34O[C@](Cc5ccccc5)(O[C@@H]1[C@@H]3C=C(COC(=O)Cc1ccc(O)c(OC)c1)C[C@]1(O)C(=O)C(C)=C[C@@H]41)O2 [Resiniferatoxin, 4-hydroxy-3-methoxy-benzeneacetic acid, [(2S,3aR,3bS,6aR,9aR,9bR, 10R,11aR)-3a, 3b, 6,6a, 9a,10,11,11a-octahydro-6a-hydroxy-8,10-dimethyl-11a-(1-methylethenyl)-7-oxo-2-(phenylmethyl)-7H-2,9b-epoxyazuleno[5,4-e]-1,3-benzodioxol-5-yl]methyl ester], the half-life ([1]; read-out: half-life in SF (converted)) is reported as about 1.5 h, the half-life ([1]; read-out: half-life in SF (range)) is reported as 1.07 to 1.85 h and the “subjects with severe adverse events” value ([2]; 100 ng group (n=24)) is reported as 2 subjects. For the same compound, the “incidence of treatment emergent adverse events” value ([2]; 100 ng group) was 62.5%, the “subjects with severe adverse events” value ([2]; 400 ng group (n=23)) was 3 subjects and the “incidence of treatment emergent adverse events” value ([2]; 400 ng group) was 78.3%. For the same compound, the “injection site pain (procedural pain) compared to placebo” value ([2]; intraarticular, 100 or 400 ng, VAS up to 3 h post injection) was “generally higher”, the “time of peak injection site pain post-injection” value ([2]; moderate-severe intensity in some subjects) was “around 0.5 h” and the “injection site pain return to baseline” value ([2]; post-injection) was at most 3 h. For the same compound, the “safety profile and tolerability” value [2, 7] was “good safety profile”, the “sustained pain relief (anecdotal long-term follow up)” value ([3]; one-time intraarticular dose 5-30 μg) was over 365 days and the “safety as onetime intraarticular injection” value ([3]; up to the planned highest dose of 30 μg) was “demonstrated safety”. For the same compound, the analgesic effect [4] was “significant and prolonged analgesic effect”, the “reduction in WOMAC total and subscale scores (pain, physical function and stiffness) versus placebo” value ([5]; 100 ng and 400 ng groups, at both 3 and 6 months) was “greater reduction” and the “mean (SD) absolute reduction of visual analog scale score, pain on motion” value ([5]; 100 ng single intraarticular injection) was 33.52 (22.89). The “mean (SD) absolute reduction of visual analog scale score, pain on motion” value ([5]; 400 ng single intraarticular injection) was 41.48 (32.57), the “analgesia evident during the follow-up period” value [5, 7] was “at least 3 months” and the “analgesic onset after administration” value [5, 7] was “within one week”. The half-life ([6]; 9.6 ng, read-out: half-life in the tissues (converted)) was about 1.5 h, the half-life ([6]; other: intraarticular, 9.6 ng/knee, read-out: half-life in the tissues (converted)) was about 1.5 h and the half-life ([6]; other: intraarticular, 9.6 ng/knee, read-out: half-life in the tissues (range)) was 0.895 to 3.21 h.
